Test results reported in patent publication US10610586B2, “Compositions for antigen-specific induction of tolerance” (STALLERGENES, priority 2005, dated 2020).

Columns and labels:
[1] = system: BALB/c mice sensitized with OVA; assay: Sublingual tolerization in a therapeutic model of type I allergy: airway responsiveness by whole body plethysmography; format: in vivo; settings: adjuvant given sublingually together with OVA 500 μg twice a week for 2 months to OVA-sensitized mice; methacholine 50 mg/ml; compared to PBS-treated mice or OVA alone
Experimental: Sensitization was performed by two intraperitoneal (i.p.) injections in 14 days interval with 10 μg OVA adsorbed to 2 mg Al(OH)3 in a total volume of 100 μl. The sensitization was followed by a 20 min aerosol challenge with 1% w/v OVA on 5 consecutive days with an aerosol delivery system (Buxco Europe; Ltd, UK). Control animals were sham treated with sterile PBS. For tolerance induction in a therapeutic model, sensitized mice were sublingually treated with OVA or OVA plus adjuvant every week, twice a week, during 2 months at a concentration of 500 μg (20 μl). Control mice were sensitized with OVA followed by sham tolerization with PBS. Measurements of airway responsiveness were performed by whole body plethysmography (Buxco Europe; Ltd, UK), 48 h after the last challenge for sensitisation or tolerization. Airflow signals were recorded in response to aerosolized methacholine (50 mg/ml), 1 minute, four times. The higher value of Penh (enhanced pause) was taken into account for the calculation of the Penh index (Penh index=Penh measured/Penh PBS).

human T cells = assay: Gene expression by human T cells after coculture with adjuvant-treated DC (quantitative PCR); format: cell-based; settings: human DC treated with adjuvant 24 h, cultured with allogenic naive CD4+ T cells, mRNA 24 h to 5 days later; only above 2-fold increase considered significant
Experimental: Dendritic cells DC were treated with candidate adjuvants for 24 h, washed and cultured with purified allogenic naïve CD4+ T cells. mRNAs were extracted 24 h to 5 days later and gene expression was assessed by quantitative PCR with primers specific for the tested genes. Only data above 2-fold increase were considered as significant.
A human in vitro model, consisting of a coculture of human pretreated DC with allogenic T cells, has been used to select IL-10-inducing adjuvants. Briefly, human DC were treated with adjuvants. After 24 h, the DC were washed and cultured with allogenic naive CD4+ T cells. After 24 h to 5 days, gene expression in human T cells was assessed by quantitative PCR.

TGF-β = TGF-β production in supernatant of spleen cell cultures after sublingual tolerization; format: in vivo; settings: OVA-sensitized mice treated sublingually with OVA plus adjuvant; compared to PBS-treated mice or OVA alone
Experimental: For tolerance induction in a therapeutic model, sensitized mice were sublingually treated with OVA or OVA plus adjuvant every week, twice a week, during 2 months at a concentration of 500 μg (20 μl). Control mice were sensitized with OVA followed by sham tolerization with PBS. Dosage of TGF-β from supernatants of spleen cell cultures was performed with an ELISA kit (R&D systems). Mice were killed by cervical dislocation. Spleens cells were isolated and plated in triplicate in 96-well flat-bottomed ELISPOT plates (Millipore, Massachussets) at densities of 2×10^5 cells per well. Different conditions were used: medium alone, OVA (100μg/ml) and PMA (phorbol myristyl acetate) (50 ng/ml, Sigma)/ionomycin (500 ng/ml, Sigma) which was used as positive control. Spot forming cells (SFCs) were monitored for IFN-γ, IL-5 and IL10. Elispot kits were from R&D systems Europe.

In the case of Lactobacillus plantarum [L. plantarum], the “airway responsiveness (Penh in response to methacholine)” value [1] is reported as “reduction of airway responsiveness”, the “Gene expression by T cells: IL10” value (human T cells) is reported as “induce IL10 gene expression” and the “TGF-β production in supernatant of spleen cell cultures” value (TGF-β) is reported as “enhanced”.
